{
  "source": "patent US10576078B2",
  "about": "(Council of Scientific & Industrial Research, priority 2017, dated 2020)",
  "key": {"[1]": {"tested_on": "chronic phase CML patient-derived mononuclear cells (CP-CML cells)", "assay": "Apoptosis by annexin V/PI staining in CP-CML cells", "type": "cell-based, Human", "conditions": "5 μM, 48 h", "description": "FD; freshly diagnosed, Resp; imatinib-responder, Res; imatinib-resistant.\nPeripheral blood samples were obtained from chronic phase (CP-CML), accelerated phase (AP) or blast crisis (BC) CML patients (BCR− ABL+ v e freshly diagnosed, Imatinib-resistant or responders), and healthy donors from King George's Medical University (Clinical Hematology and Medical Oncology division), Lucknow, following ethical approval (Approval No: 1638/R. Cell-12) as per institutional ethical guidelines after written consent. Peripheral blood mononuclear cells (PBMC) were isolated on Percoll (Sigma) density gradient by centrifugation. Briefly, the blood was collected in vials coated with trisodium citrate buffer. Cells were then centrifuged 700 g for 10 min and plasma was removed. The pellet was resuspended in 6 ml Hank's balanced salt solution (HBSS; Invitrogen, Thermo Fisher Scientific), and then 2 ml of 6% Dextran in HBSS was added to it. Cells were then incubated at 37° C. for 30 min. The supernatant was then collected and centrifuged at 300 g for 5 min. The pellet was then resuspended in 2 ml HBSS supplemented with 0.18% glucose and loaded onto percoll gradient. PBMCs were then isolated by centrifugation."}, "[2]": {"tested_on": "CD34+ cells from healthy donors", "experimental": "Determination of CFZ's Effect on Cell Viability and Apoptosis • a. CellTitre-Glo assay: Cell viability (in FIG. 1B, FIG. 4 and FIG. 6A) assays was performed using the ATP-based CellTiter-Glo Luminescent cell viability assay (Promega Madison, Wis.) as per the manufacturer's instruction. Briefly, (1.25×10^5) K562 cells/ml (FIG. 1B and FIG. 4) or CD34+ cells from healthy donors (FIG. 6A) were cultured in 48-well plates and were treated as indicated in the respective figures and figure descriptions (vehicle; V=0.1% DMSO). Cells were then incubated with CellTitre-Glo reagent for 15 min. Luminescence was recorded in a GloMax-96 Microplate luminometer (Promega, Madison, Wis.) with an integration time of 1 s per well. • b. Analysis of apoptosis by Annexin V staining and flow cytometry • K562 (FIG. 1C-D) and primary CP-CML cells (FIG. 1H-I) were cultured in 6 well plates (2×10^5 cells/well) and were treated with indicated concentrations of compounds as described in respective figures and their descriptions. Cells were then harvested and washed, and incubated in binding buffer (Annexin V Binding Buffer, BD Pharmingen) with 0.3% Annexin V-FITC and PI for 15 min at room temperature in dark. Apoptosis was measured by FACSCalibur flow cytometer (Becton Dickenson, San Jose, Calif.). • c. TUNEL assay • Pro-apoptotic potential was analysed using a Fluorometric APO-BrdU™ TUNEL Assay Kit (Invitrogen) according to the manufacturer's protocol (FIG. 1F). Cells were treated with Vehicle (0.1% DMSO) or CFZ (5 μM) for 48 h. Cells were then fixed in formaldehyde (4%) for 25 min at 4° C., permeabilized with 0.2% Triton-X100 and washed with PBS. Cells were then incubated in Terminal Deoxynucleotidyl Transferase (TdT) reaction buffer without TdT enzyme for 7 minutes at room temperature and then in TdT buffer with TdT enzyme at 37° C. in dark. After termination of TdT reaction, cells were stained with 5 μg/ml of PI for 15 min in dark followed by washing and analysed with fluorescence microscopy."}, "[3]": {"conditions": "rat, in vivo, po", "description": "Sprague-Dawley rats (n=6 per group) were divided into 3 groups. […] Plasma was separated and processed for analysis by LC-MS/MS. For pharmacokinetic and statistical analysis, plasma concentration versus time data were plotted and analyzed by non-compartmental analysis method using WinNonlin (Pharsight, Mountain View, Calif.) software.\nFor this SD rats (n=6 per group) were divided into 3 groups. […] Plasma was separated and processed for analysis by LC-MS/MS. For pharmacokinetic and statistical analysis, plasma concentration versus time data were plotted and analyzed by non-compartmental analysis method using WinNonlin (Pharsight, Mountain View, Calif.) software."}, "[4]": {"tested_on": "CD34+ population from CP-CML cells from imatinib-resistant patients", "assay": "CD34+ count and apoptosis in CD34+ LSC population from imatinib-resistant CP-CML patients", "type": "cell-based, Human", "experimental": "CD34^+ population from CP-CML cells from imatinib-resistant patients (n=3) were individually purified using a CD34 microbead kit (Miltenyi Biotech) and were treated with 5 μM CFZ or salinomycin for 48 h. Cells were then divided into two groups. One group was assessed by immunostaining for CD34 and the other group was stained with annexin V/PI and the cells were then analyzed by flow-cytometry. Salinomycin was used as positive control. **p<0.01, ***p<0.0001.\nCD34^+ population from primary CP-CML cells from imatinib-resistant patients (n=3) were purified using a CD34 microbead kit. Cells were incubated with V or 2.5 μM CFZ for 96 h, stained with PE-conjugated anti-CD34 and FITC-conjugated anti-CD38 antibodies for specific subpopulation and apoptosis was analyzed by APC labeled annexin V and propidium iodide (PI) staining followed by flow-cytometry (FACSCalibur, BD biosciences). *p<0.05, **p<0.01.\nThe observed purity was 80-90%.\nFor assessing apoptosis in the CD34^+ population from CML patients, these cells were then treated as indicated in the figures and figure descriptions (FIG. 2A). At the end of treatment, cells from each treatment group were divided in two separate tubes. One group was stained with CD34-PE and the other group was stained with Annexin V FITC/PI antibodies.\nFor assessing apoptosis in CD34^+ CD38^+ and CD34^+ CD38^− subpopulations from CML patients, CD34^+ cells were isolated as above and were treated with V or 2.5 μM CFZ for 96 h and then stained with PE-conjugated anti-CD34, FITC-conjugated anti-CD38 antibodies for 30 min and then stained with Annexin V-APC/PI at room temperature for 15 minutes and then were gated into CD34^+38^+ and CD34^+38^− populations and apoptosis was assessed in a FACSAria flow cytometer."}, "K562 cells": {"tested_on": "K562 cells", "assay": "TUNEL assay in K562 cells", "type": "cell-based, Human", "conditions": "CFZ 5 μM, 48 h", "experimental": "K562 cells were treated with CFZ for 48 h and TUNEL staining was performed followed by fluorescent microscopy. Images are representative of two independent experiments (8 fields per group)."}},
  "data": [
    {"smiles": "CC(C)/N=c1\\cc2n(-c3ccc(Cl)cc3)c3ccccc3nc-2cc1Nc1ccc(Cl)cc1", "note": "[CFZ, Clofazimine]", "values": [
      {"measurement": "efficacy of apoptosis induction", "setting": "[1]; CP-CML cells from freshly diagnosed patients", "value": "comparable to imatinib"},
      {"measurement": "efficacy of apoptosis induction", "setting": "[1]; CP-CML cells from imatinib responders", "value": "comparable to imatinib"},
      {"measurement": "efficacy of apoptosis induction versus dasatinib", "setting": "[1]; CP-CML cells harboring BCR-ABL mutation F359V", "value": "higher"},
      {"measurement": "efficacy of apoptosis induction versus dasatinib", "setting": "[1]; CP-CML cells harboring BCR-ABL mutation M244V", "value": "comparable"},
      {"measurement": "efficacy of apoptosis induction versus dasatinib", "setting": "[1]; CP-CML cells harboring BCR-ABL mutation M351T", "value": "higher"},
      {"measurement": "efficacy of apoptosis induction versus dasatinib", "setting": "[1]; CP-CML cells harboring BCR-ABL mutation Y253H", "value": "higher"},
      {"measurement": "efficacy of apoptosis induction", "setting": "[1]; imatinib-resistant CP-CML cells", "value": "higher than imatinib and dasatinib"},
      {"measurement": "apoptosis in CD34+ cells from healthy donor by Annexin V", "setting": "[2]", "value": "no apoptosis"},
      {"measurement": "viability of CD34+ hematopoietic progenitor cells from healthy controls", "setting": "[2]", "value": "No loss of survival"},
      {"measurement": "Tmax in combination group compared to individual groups", "setting": "[3]", "value": "no change"},
      {"measurement": "clearance in combination group compared to individual groups", "setting": "[3]", "value": "lower"},
      {"measurement": "apoptosis in committed CD34+38+ progenitor cells", "setting": "[4]; 2.5 μM CFZ, 96 h, n=3", "value": "induced apoptosis"},
      {"measurement": "apoptosis in primitive CD34+38− progenitor cells", "setting": "[4]; 2.5 μM CFZ, 96 h, n=3", "value": "induced apoptosis"},
      {"measurement": "apoptosis in CD34+ LSC population", "setting": "[4]; imatinib-resistant CP-CML patients, n=3, 5 μM, 48 h", "value": "induced apoptosis"},
      {"measurement": "CD34+ population", "setting": "[4]; imatinib-resistant patients, 5 μM, 48 h", "value": "reduces"},
      {"measurement": "apoptosis as determined by TUNEL assay", "setting": "K562 cells", "value": "induces apoptosis"}
    ]}
  ]
}
